# Active and inactive are the calls of the source.
# Experiments:
# [1] = molecular target: Eukaryotic translation initiation factor 4E (Mus musculus, UniProt P63073); test: blockers of eIF4G binding by eIF4E – biochemical, TR-FRET, dose response (AID 855); type: functional;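 also: potency for disrupting eIF4E binding to eIF4GI seen as loss of FRET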
# [2] = molecular target: T1, Heat shock factor protein 1 (Mus musculus, UniProt P38532); test: enhancement of HSF1-driven luciferase signal – cell-based, NIH3T3, luminescence, dose retest, confirmation (AID 435004); type: functional;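 also: stress induced by proteasome inhibitor MG132 added 30 min after compound; luciferase reporter driven by HSF1 response element in NIH3T3 cells; actives raise luminescence as potentiators of the MG132 stress response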
# T1 sequence (P38532 whole entry): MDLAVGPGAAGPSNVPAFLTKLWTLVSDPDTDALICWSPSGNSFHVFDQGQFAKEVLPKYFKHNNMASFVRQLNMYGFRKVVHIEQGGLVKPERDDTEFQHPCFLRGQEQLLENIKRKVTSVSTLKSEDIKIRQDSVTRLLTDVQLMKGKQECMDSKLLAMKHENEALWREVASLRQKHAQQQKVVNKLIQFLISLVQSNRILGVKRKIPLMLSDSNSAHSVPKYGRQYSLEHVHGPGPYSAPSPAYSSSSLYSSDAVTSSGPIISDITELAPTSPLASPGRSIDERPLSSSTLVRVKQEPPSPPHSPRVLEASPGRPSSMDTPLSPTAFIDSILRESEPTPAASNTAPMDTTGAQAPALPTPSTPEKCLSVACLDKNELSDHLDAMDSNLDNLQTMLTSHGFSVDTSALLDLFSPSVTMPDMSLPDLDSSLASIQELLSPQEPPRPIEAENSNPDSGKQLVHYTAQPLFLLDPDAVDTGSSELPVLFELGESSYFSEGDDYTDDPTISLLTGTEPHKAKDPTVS
# [3] = NIH3T3 cell viability loss – ATP luminescence, mouse fibroblasts, counter-screen, dose response (AID 2010); type: functional, cell-based;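 also: cells exposed to compound for about 90 hours before reading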
# [4] = Trypanosoma cruzi growth suppression in host cells – NIH3T3 host cells, beta-gal luminescence, confirmation (AID 2044); type: functional, cell-based;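 also: intracellular parasites grown in NIH/3T3 mouse fibroblasts as host cells; luminescent beta-galactosidase reporter signal from transgenic T. cruzi replicating inside host cells; inhibitors lower the luminescence signal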
# [5] = cells
# [6] = cells; type: functional, cell-based
# [7] = cells; type: functional, cell-based; remark: listed apart in the source
# [8] = system: Vero; test: cells; type: functional, cell-based; details: Chlorocebus sabaeus
# [9] = cells; remark: listed apart in the source
# [10] = viability of uninfected HEp-2 cells – cell-based, HTS, cytotoxicity control for RSV inhibitor project, dose response (AID 2410); type: functional; details: human respiratory syncytial virus
# [11] = Vero E6 cell cytotoxicity, dose response, cytotoxicity control for non-replicating M. tuberculosis project, secondary assay (AID 492998); type: functional, VeroE6; details: Vero C1008
# [12] = THP-1 cell cytotoxicity, dose response, cytotoxicity control for non-replicating M. tuberculosis project (AID 489025); type: functional
# [13] = molecular target: T2, CAAX prenyl protease 2 (Saccharomyces cerevisiae S288c, UniProt Q03530); type: biochemical
# T2 sequence (Q03530 whole entry): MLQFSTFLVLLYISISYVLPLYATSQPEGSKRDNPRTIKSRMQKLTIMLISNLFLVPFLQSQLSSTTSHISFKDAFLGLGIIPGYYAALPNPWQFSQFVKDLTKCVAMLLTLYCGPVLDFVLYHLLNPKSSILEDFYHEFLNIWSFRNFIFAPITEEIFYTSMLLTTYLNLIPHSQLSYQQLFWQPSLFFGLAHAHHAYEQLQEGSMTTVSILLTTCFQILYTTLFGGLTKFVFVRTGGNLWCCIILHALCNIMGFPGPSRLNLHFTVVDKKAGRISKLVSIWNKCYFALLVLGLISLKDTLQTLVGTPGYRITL
# [14] = cells; type: functional
# [15] = HepG2 cell cytotoxicity, dose response, cytotoxicity control for non-replicating M. tuberculosis project (AID 489018); type: functional; details: Mycobacterium tuberculosis
# [16] = molecular target: DNA dC->dU-editing enzyme APOBEC-3A (Homo sapiens, UniProt P31941); test: A3A deaminase inhibition for selectivity – biochemical, dose response (AID 504722); type: functional
# [17] = molecular target: DNA dC->dU-editing enzyme APOBEC-3G (Homo sapiens, UniProt Q9HC16); test: Dose Response confirmation of small molecule APOBEC3G DNA Deaminase Inhibitors via a fluorescence-based single-stranded DNA deaminase assay. [Related pubchem assays (depositor defined):AID493012, AID493028]; type: functional
# [18] = system: Vero; test: cells; type: functional; details: Chlorocebus sabaeus
# [19] = blockers of HIV-1 envelope-mediated cell-cell fusion – cherry-pick, dose response (AID 652057); type: functional, cell-based
# [20] = HIV-1 AD8 envelope cell-cell fusion blockers – cherry-pick, dose response (AID 652062); type: functional, cell-based;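 also: luciferase signal from cell-cell fusion driven by HIV-1 clade B AD8 Env; potency is for inhibitors of fusion seen as a drop in luminescence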
# [21] = blockers of HIV-1 ZM109 envelope-driven cell-cell fusion – HeLa effector, CEM target cells, luciferase, cherry-pick, dose response (AID 652058); type: functional, cell-based;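 also: luciferase signal from HIV-1 Env mediated cell-cell fusion of effector and target cells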
# [22] = off-target signal loss in HeLa-CEM21 co-culture – HeLa F-luc CTL cells, cherry-picked, counter-screen for HIV-1 Env fusion inhibitor project, dose response (AID 652040); type: functional, cell-based;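 also: potency for signal decrease marking cytotoxic or nonspecific inhibition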
# [23] = NIH-3T3 fibroblast cytotoxicity, dose response, cytotoxicity control, cell-based, fluorescence, Alamar Blue, secondary assay (AID 2327); type: functional;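 also: NIH-3T3 mouse fibroblasts cultured with fluconazole at 8 µg/mL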
# [24] = fluconazole-exposed Candida albicans growth modulators – fluorescence, retest, confirmation (AID 2467); type: functional, cell-based
# [25] = molecular target: T3, Corticotropin-releasing factor receptor 2/Corticotropin-releasing factor-binding protein (Homo sapiens, UniProt P24387+Q13324); test: activators of CRF receptor 2 with binding protein – uHTS hits, confirmation (AID 602473); type: functional; details: read-out: EC50_Mean
# T3 sequence (Q13324 whole entry): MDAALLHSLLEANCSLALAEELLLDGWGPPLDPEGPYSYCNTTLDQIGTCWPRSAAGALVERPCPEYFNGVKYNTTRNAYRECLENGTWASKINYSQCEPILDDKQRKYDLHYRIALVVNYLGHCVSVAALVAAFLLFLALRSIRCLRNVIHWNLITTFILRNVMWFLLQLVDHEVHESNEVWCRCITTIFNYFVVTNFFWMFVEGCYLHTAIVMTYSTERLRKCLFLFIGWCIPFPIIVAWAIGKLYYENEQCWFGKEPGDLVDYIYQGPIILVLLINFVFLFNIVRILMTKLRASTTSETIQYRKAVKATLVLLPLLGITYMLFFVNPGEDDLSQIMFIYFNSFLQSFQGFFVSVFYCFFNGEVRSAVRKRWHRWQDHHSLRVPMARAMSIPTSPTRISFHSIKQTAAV
# T3 sequence (P24387 whole entry): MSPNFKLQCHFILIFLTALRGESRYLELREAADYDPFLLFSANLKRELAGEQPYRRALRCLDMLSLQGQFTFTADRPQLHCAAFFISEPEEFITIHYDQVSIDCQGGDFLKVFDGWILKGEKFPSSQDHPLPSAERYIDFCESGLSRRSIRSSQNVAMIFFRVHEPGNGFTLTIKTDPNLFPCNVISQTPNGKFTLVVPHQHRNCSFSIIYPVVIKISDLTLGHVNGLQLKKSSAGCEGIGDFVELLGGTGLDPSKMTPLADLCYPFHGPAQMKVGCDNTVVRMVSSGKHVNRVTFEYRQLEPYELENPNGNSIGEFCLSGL
# [26] = molecular target: T3, Corticotropin-releasing factor receptor 2/Corticotropin-releasing factor-binding protein; test: Dose Response confirmation of uHTS hits for small molecule antagonists of the CRF-binding protein and CRF-R2 receptor complex.; type: functional; details: read-out: IC50_Mean
# [27] = molecular target: T4, Rac GTPase-activating protein 1 (Homo sapiens, UniProt Q9H0H5); test: blockers of MgcRacGAP-driven Rac1 GTP hydrolysis – biochemical, ADP Hunter fluorescence, primary and confirmatory, confirmation (AID 624330); type: functional
# T4 sequence (Q9H0H5 whole entry): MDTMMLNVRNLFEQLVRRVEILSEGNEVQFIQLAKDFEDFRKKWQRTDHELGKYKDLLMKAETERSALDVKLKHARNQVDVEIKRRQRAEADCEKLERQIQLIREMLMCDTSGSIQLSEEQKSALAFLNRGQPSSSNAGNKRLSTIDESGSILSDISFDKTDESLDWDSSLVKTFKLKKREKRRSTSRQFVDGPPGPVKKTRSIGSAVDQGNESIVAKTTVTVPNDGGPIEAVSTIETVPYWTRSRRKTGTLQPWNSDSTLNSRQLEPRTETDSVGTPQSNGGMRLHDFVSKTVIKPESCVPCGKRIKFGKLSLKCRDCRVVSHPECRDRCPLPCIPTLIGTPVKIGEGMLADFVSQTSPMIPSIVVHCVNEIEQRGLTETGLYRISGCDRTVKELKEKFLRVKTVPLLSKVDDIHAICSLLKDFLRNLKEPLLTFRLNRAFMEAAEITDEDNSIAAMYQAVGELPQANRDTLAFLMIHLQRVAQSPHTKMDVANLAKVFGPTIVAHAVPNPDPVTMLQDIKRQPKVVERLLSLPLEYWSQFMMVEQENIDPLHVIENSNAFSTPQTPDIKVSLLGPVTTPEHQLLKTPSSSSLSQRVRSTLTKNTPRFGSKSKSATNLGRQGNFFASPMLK
# Chain of DNA dC->dU-editing enzyme APOBEC-3G (Q9HC16 whole entry): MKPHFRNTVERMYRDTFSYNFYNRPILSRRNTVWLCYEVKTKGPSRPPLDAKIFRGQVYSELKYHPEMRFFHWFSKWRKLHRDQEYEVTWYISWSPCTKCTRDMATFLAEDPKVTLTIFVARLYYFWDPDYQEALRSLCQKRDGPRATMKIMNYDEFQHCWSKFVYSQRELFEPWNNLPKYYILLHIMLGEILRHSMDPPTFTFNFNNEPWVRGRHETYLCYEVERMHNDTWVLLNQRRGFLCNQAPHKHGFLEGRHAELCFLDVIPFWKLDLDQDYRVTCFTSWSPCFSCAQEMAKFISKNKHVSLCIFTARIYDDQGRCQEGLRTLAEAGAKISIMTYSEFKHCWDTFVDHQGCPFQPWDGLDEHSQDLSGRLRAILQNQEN
# Chain of DNA dC->dU-editing enzyme APOBEC-3A (P31941 whole entry): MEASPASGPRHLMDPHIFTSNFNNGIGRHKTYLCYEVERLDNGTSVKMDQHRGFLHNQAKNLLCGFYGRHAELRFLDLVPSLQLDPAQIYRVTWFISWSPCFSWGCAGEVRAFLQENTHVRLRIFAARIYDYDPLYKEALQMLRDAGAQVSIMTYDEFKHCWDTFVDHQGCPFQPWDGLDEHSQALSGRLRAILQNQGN
# Chain of Eukaryotic translation initiation factor 4E (P63073 whole entry): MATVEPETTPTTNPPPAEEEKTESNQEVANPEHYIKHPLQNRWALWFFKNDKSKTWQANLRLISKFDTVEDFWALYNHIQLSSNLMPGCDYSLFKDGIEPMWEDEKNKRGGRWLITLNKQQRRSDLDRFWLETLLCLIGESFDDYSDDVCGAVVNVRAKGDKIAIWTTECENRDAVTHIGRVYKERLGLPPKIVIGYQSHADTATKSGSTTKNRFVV
structure (smiles),measurement,setting,value
C=CCSc1nc(-c2ccc(OC)cc2)c(C#N)c(=O)n1CC=C,IC50,[1],50 µM (inactive)
same,EC50,[2],12.7 µM (active)
CCCCN(C)Cc1c(C)nc2c(Cl)cccc2c1O,EC50,[3],> 60 µM (not active)
same,EC50,[4],< 0.1 µM (active)
same,EC50,[5],0.074 µM (active)
Cc1ccc(-n2nc3c(=O)n(CC(=O)NCCc4ccccc4C)nc(C)c3c2C)cc1,EC50,[6],> 29.9 µM (inactive)
same,IC50,[7],> 29.9 µM (inactive)
COCCn1c(SC(C)C(=O)Nc2ncc(Cl)cc2Cl)nc2ccccc21 (configuration not stated),IC50,[8],8.99 µM (active)
same,IC50,[9],14.8 µM (active)
same,CC50,[10],25.5 µM (active)
CCOc1ccc(N2C(=O)C(CC(=O)Nc3ccccc3)N(Cc3ccccn3)C2=S)cc1 (configuration not stated),IC50,[9],5 µM (active)
same,CC50,[10],33.6 µM (active)
CCOC(=O)Nc1ccc2c(c1)N(C(=O)CCN1CCOCC1)c1ccccc1[S+]2[O-] (configuration not stated),EC50,[2],> 260 µM (inactive)
same,CC50,[11],> 20 µM (active)
same,CC50,[12],26.7 µM (active)
CC(C)Cc1ccc(CN2CCCC(NC(=O)c3nn(C)c(=O)c4ccccc34)C2)cc1 (configuration not stated),EC50,[3],8.66 µM (active)
same,EC50,[4],< 0.1 µM (active)
same,EC50,[5],0.021 µM (active)
S=C(NCCc1ccccc1)N1CCn2cccc2C1c1cccnc1 (configuration not stated),EC50,[3],> 60 µM (not active)
same,EC50,[4],< 0.1 µM (active)
same,EC50,[5],0.112 µM (active)
CC(C)(CO)CNC1CCCN(C2Cc3ccccc3C2)C1 (configuration not stated),EC50,[3],10.5 µM (active)
same,EC50,[4],< 0.1 µM (active)
same,EC50,[5],0.12 µM (active)
O=C(Nc1ccc(Cl)c([N+](=O)[O-])c1)C(Sc1ccccc1)c1ccccc1 (configuration not stated),AC50,[13],7.77 µM (active)
same,EC50,[3],> 60 µM (inconclusive)
same,EC50,[4],1.45 µM (active)
Cc1cc(C[n+]2cc(Cl)ccc2N)c2ncccc2c1,IC50,[9],35.7 µM (active)
same,CC50,[10],> 50 µM (active)
CCOC(=O)Cc1csc(NC(=O)c2c(O)c3ccccc3n(CCC(C)C)c2=O)n1,IC50,[14],2.08 µM (active)
same,CC50,[11],8.56 µM (active)
same,CC50,[12],15.2 µM (active)
same,CC50,[15],> 20 µM (active)
Nn1c(Cc2cccc3ccccc23)n[nH]c1=S,IC50,[16],> 100 µM (inactive)
same,IC50,[17],2.94 µM (active)
COc1cc2c(cc1OC)CN(C(=O)c1cccc(S(=O)(=O)N3CCc4ccccc43)c1)CC2,IC50,[8],19.5 µM (active)
same,IC50,[9],45.9 µM (active)
same,CC50,[18],> 25 µM (active)
same,CC50,[10],18.7 µM (active)
CCn1c(SC)nnc1-c1sc2cc(Cl)ccc2c1Cl,IC50,[9],9.26 µM (active)
same,CC50,[10],11.2 µM (active)
CCN(C1CCCCC1)S(=O)(=O)c1ccc(S(=O)(=O)N(CC(=O)Nc2ccccc2)C2CC2)cc1,EC50,[3],> 60 µM (not active)
same,EC50,[4],1.93 µM (active)
same,AC50,[19],4.9 µM (active)
same,AC50,[20],7.31 µM (active)
same,AC50,[21],6.25 µM (active)
same,AC50,[22],27.9 µM (active)
Cn1c(S)nnc1-c1csc(-c2ccccc2)n1,IC50,[16],> 100 µM (inactive)
same,IC50,[17],3.06 µM (active)
O=C(NC1CCCCC1)C(c1ccc(Cl)cc1)N(C(=O)c1cnccn1)c1ccc2c(c1)OCO2 (configuration not stated),EC50,[23],> 150 µM (inactive)
same,AC50,[19],3.15 µM (active)
same,AC50,[20],1.95 µM (active)
same,AC50,[21],2.47 µM (active)
same,AC50,[22],7.12 µM (active)
same,EC50,[24],> 38 µM (not active)
CC1CCc2c(sc3ncnc(N4CCOCC4)c23)C1 (configuration not stated),EC50,[23],> 160 µM (inactive)
same,AC50,[19],22.5 µM (active)
same,AC50,[20],4.54 µM (active)
same,AC50,[21],0.858 µM (active)
same,AC50,[22],20.8 µM (active)
same,EC50,[24],> 38 µM (not active)
CCOC(=O)[C@@H]1[C@H]2COc3ccc(Br)cc3[C@@H]2N2C(=O)N(c3cccc(C)c3)C(=O)[C@]12C,AC50,[13],4.52 µM (active)
Cc1cc(O)nc(SCC(=O)NCCc2ccccc2)n1,EC50,[6],> 29.9 µM (inactive)
same,IC50,[7],> 29.9 µM (inactive)
O=C(CNc1ccccc1)N/N=C/c1ccc([N+](=O)[O-])o1,EC50,[3],> 60 µM (not active)
same,EC50,[4],< 0.1 µM (active)
same,EC50,[25],> 53 µM (inactive)
same,EC50,[5],0.091 µM (active)
same,IC50,[26],> 47.1 µM (inactive)
C/C(=N\NC(=O)COc1cccc(C)c1)c1ccc2ccccc2c1O,CC50,[11],16.5 µM (active)
same,CC50,[12],8.95 µM (active)
same,CC50,[15],19.1 µM (active)
Cc1cc(-c2nnc(S)n2/N=C/c2ccccc2[N+](=O)[O-])[nH]n1,IC50,[27],107 µM (active)
same,IC50,[16],> 100 µM (inactive)
same,IC50,[17],6.21 µM (active)
CCc1nnc(S)n1/N=C/c1ccc(N(CC)CC)cc1,IC50,[16],> 100 µM (inactive)
same,IC50,[17],6.69 µM (active)
